# Values quoted from earlier work, collected in patent publication US20080044439A1, “Compositions and Methods for Preventing and Treating Skin and Hair Conditions” (priority 2004, published 2008).
# Test system: albino guinea pigs
compound,measurement,setting,value
CC(C)Cn1cnc2c(N)nc3ccccc3c21 [imiquimod],"fading the tattoo, macroscopically and histologically","5 percent cream applied every 6 hours for seven days, evaluated at seven and 28 days after tattoo placement, compared with petrolatum, tretinoin 0.025 percent, tretinoin alternated with imiquimod",most effective regimen for fading the tattoo
same,biopsy evaluation of the treated site,"guinea pig, in vivo","epidermal and dermal necrosis with separation, severe inflammation and fibrosis, and disruption of the skin appendages"
